Experimental data: US10287301B2 (Achillion Pharmaceuticals, Inc., priority 2015, dated 2019)

The molecules below were run against Human Factor D (Homo sapiens (Human), UniProt P00746) (assay: Human Factor D Assay). Conditions: not given.
Assay type: biochemical
How it was run: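 IC50 values derive from nonlinear regression of Factor D reaction rates against compound concentration. The enzyme, purified from human serum, is used at 80 nM final with a 5 min room-temperature compound preincubation in 50 mM Tris, 1M NaCl, pH 7.5, before 100 μM Z-L-Lys-SBzl plus 100 μM DTNB are added.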

Human Factor D, sequence (P00746 26-253): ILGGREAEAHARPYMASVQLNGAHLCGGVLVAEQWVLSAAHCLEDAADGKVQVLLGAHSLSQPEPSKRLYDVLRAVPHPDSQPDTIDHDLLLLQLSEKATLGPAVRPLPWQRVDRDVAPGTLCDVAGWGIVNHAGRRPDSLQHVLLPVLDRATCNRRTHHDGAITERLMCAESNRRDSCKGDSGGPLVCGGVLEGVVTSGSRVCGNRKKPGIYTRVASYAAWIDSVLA

| Structure (SMILES) | IC50 |
| --- | --- |
| CCc1cn(CC(=O)N2NCCC2C(=O)Nc2cccc(-c3ccccc3Cl)c2F)c2ccc(-c3cnc(C)nc3)cc12 (stereo not shown) [Compound 267, N-(2′-chloro-2-fluorobiphenyl-3-yl)-2-(2-(3-ethyl-5-(2-methylpyrimidin-5-yl)-1H-indol-1-yl)acetyl)pyrazolidine-3-carboxamide] | 1 to 10 µM |

Same assay, conditions: Human Factor D 80 nM, substrate Z-L-Lys-SBzl; read-out: IC50

| Structure (SMILES) | IC50 |
| --- | --- |
| NC(=O)c1nn(CC(=O)N2C[C@H](F)C[C@H]2C(=O)Nc2nc(-c3cccc(Cl)c3)ns2)c2ccc(-c3ccnnc3)cc12 [Compound 146, 1-(2-((2S,4R)-2-(3-(3-chlorophenyl)-1,2,4-thiadiazol-5-ylcarbamoyl)-4-fluoropyrrolidin-1-yl)-2-oxoethyl)-5-(pyridazin-4-yl)-1H-indazole-3-carboxamide] | > 10 µM |
| CC(=O)c1cn(CC(=O)N2C[C@H](F)C[C@H]2C(=O)Nc2nc(-c3ccc4c(c3)CCCC4)cs2)c2ccc(-c3ccnnc3)cc12 [Compound 54, (2S,4R)-1-(2-(3-acetyl-5-(pyridazin-4-yl)-1H-indol-1-yl)acetyl)-4-fluoro-N-(4-(5,6,7,8-tetrahydro-naphthalen-2-yl)thiazol-2-yl)pyrrolidine-2-carboxamide] | > 10 µM |
| Cc1ncc(-c2ccc3c(c2)c(C(N)=O)nn3CC(=O)N2C[C@H](F)C[C@H]2C(=O)Nc2cccc(Br)n2)cn1 [Compound 101, 1-(2-((2S,4R)-2-(6-bromopyridin-2-ylcarbamoyl)-4-fluoropyrrolidin-1-yl)-2-oxoethyl)-5-(2-methylpyrimidin-5-yl)-1H-indazole-3-carboxamide] | < 1 µM |
| CC(=O)c1cn(CC(=O)N2C[C@H](F)C[C@H]2C(=O)Nc2ccc(CN)cc2)c2ccc(-c3ccnnc3)cc12 [Compound 85, (2S,4R)-1-(2-(3-acetyl-5-(pyridazin-4-yl)-1H-indol-1-yl)acetyl)-N-(4-(aminomethyl)phenyl)-4-fluoropyrrolidine-2-carboxamide] | > 10 µM |
| CC(=O)c1cn(CC(=O)N2C[C@H](F)C[C@H]2C(=O)Nc2noc3cc(C(F)(F)F)ccc23)c2ccc(-c3ccnnc3)cc12 [Compound 42, (2S,4R)-1-(2-(3-acetyl-5-(pyridazin-4-yl)-1H-indol-1-yl)acetyl)-4-fluoro-N-(6-(trifluoromethyl)benzo[d]isoxazol-3-yl)pyrrolidine-2-carboxamide] | > 10 µM |
| CC(=O)c1cn(CC(=O)N2C[C@H](F)C[C@H]2C(=O)NCc2ccccn2)c2ccc(-c3ccnnc3)cc12 [Compound 38, (2S,4R)-1-(2-(3-acetyl-5-(pyridazin-4-yl)-1H-indol-1-yl)acetyl)-4-fluoro-N-(pyridin-2-ylmethyl) pyrrolidine-2-carboxamide] | < 1 µM |
| NC(=O)c1nn(CC(=O)N2[C@@H]3C[C@@H]3C[C@H]2C(=O)Nc2cccc(Br)n2)c2ccc(-c3cnc(N4CCCC4)nc3)cc12 [Compound 11] | < 1 µM |

Same assay, conditions: Human Factor D assay of Example 8; Table 2; read-out: IC50

| Structure (SMILES) | IC50 |
| --- | --- |
| CC(=O)c1nn(CC(=O)N2C[C@H](F)C[C@H]2C(=O)Nc2nc(Cl)cs2)c2ccc(-c3cnc(C)nc3)cc12 [Compound 258, (2S,4R)-1-(2-(3-acetyl-5-(2-methylpyrimidin-5-yl)-1H-indazol-1-yl)acetyl)-N-(4-chlorothiazol-2-yl)-4-fluoropyrrolidine-2-carboxamide] | < 1 µM |
| CC(=O)c1cn(CC(=O)N2C[C@H](F)C[C@H]2C(=O)Nc2cncc(Br)n2)c2ccc(-c3cnc4cc(C)nn4c3)cc12 [Compound 310, (2S,4R)-1-(2-(3-acetyl-5-(2-methylpyrazolo[1,5-a]pyrimidin-6-yl)-1H-indol-1-yl)acetyl)-N-(6-bromopyrazin-2-yl)-4-fluoropyrrolidine-2-carboxamide] | < 1 µM |

Same assay, conditions: Human Factor D, Table 3; read-out: IC50

| Structure (SMILES) | IC50 |
| --- | --- |
| CC(=O)c1nn(CC(=O)N2[C@@H]3C[C@@H]3C[C@H]2C(=O)Nc2nc(Br)ccc2CO)c2ccc(-c3cnc(C)nc3)cc12 [Compound 574, (1R,3S,5R)-2-(2-(3-acetyl-5-(2-methylpyrimidin-5-yl)-1H-indazol-1-yl)acetyl)-N-(6-bromo-3-(hydroxymethyl)pyridin-2-yl)-2-azabicyclo[3.1.0] hexane-3-carboxamide] | < 1 µM |
| CC(=O)c1nn(CC(=O)N2C[C@H](F)C[C@H]2C(=O)Nc2cccc(C3CC3)n2)c2ccc(-c3cnc(C)nc3)cc12 [Compound 576, (2S,4R)-1-(2-(3-Acetyl-5-(2-methylpyrimidin-5-yl)-1H-indazol-1-yl)acetyl)-N-(6-cyclopropylpyridin-2-yl)-4-fluoropyrrolidine-2-carboxamide] | < 1 µM |
| CC(=O)c1nn(CC(=O)N2C[C@H](F)C[C@H]2C(=O)Nc2cccc(Br)n2)c2ccc(-c3cnc(N)[n+]([O-])c3)cc12 [Compound 741, 5-(3-acetyl-1-(2-((2S,4R)-2-((6-Bromopyridin-2-yl)carbamoyl)-4-fluoropyrrolidin-1-yl)-2-oxoethyl)-1H-indazol-5-yl)-2-aminopyrimidine 1-oxide] | < 1 µM |
| CC(=O)c1cn(CC(=O)N2C[C@H](F)C[C@H]2C(=O)NCCc2ccccc2)c2ccc(-c3cnc4cc(C)nn4c3)cc12 [Compound 686, (2S,4R)-1-(2-(3-Acetyl-5-(2-methylpyrazolo[1,5-a]pyrimidin-6-yl)-1H-indol-1-yl)acetyl)-4-fluoro-N-phenethylpyrrolidine-2-carboxamide] | < 1 µM |
| CC(=O)c1nn(CC(=O)N2C[C@H](F)C[C@H]2C(=O)Nc2cccc(Br)n2)c2ccc(-c3cnc4cc(C(C)(C)C)nn4c3)cc12 [Compound 682, (2S,4R)-1-(2-(3-Acetyl-5-(2-(tert-butyl)pyrazolo[1,5-a]pyrimidin-6-yl)-1H-indazol-1-yl)acetyl)-N-(6-bromopyridin-2-yl)-4-fluoropyrrolidine-2-carboxamide] | < 1 µM |
| CC(=O)c1nn(CC(=O)N2[C@@H]3C[C@@H]3C[C@H]2C(=O)Nc2cnc(C)c(Br)n2)c2ccc(-c3cnc4ccnn4c3)cc12 [Compound 667, (1R,3S,5R)-2-(2-(3-Acetyl-5-(pyrazolo[1,5-a]pyrimidin-6-yl)-1H-indazol-1-yl)acetyl)-N-(6-bromo-5-methylpyrazin-2-yl)-2-azabicyclo[3.1.0]hexane-3-carboxamide] | < 1 µM |

Same assay, conditions: Table 3; Human Factor D 80 nM, substrate Z-L-Lys-SBzl; read-out: IC50 (Stars)

| Structure (SMILES) | IC50 |
| --- | --- |
| CC(=O)c1nn(CC(=O)N2[C@H](C(=O)Nc3cccc(Br)n3)C[C@@]3(C)C[C@@H]23)c2ccc(-c3cnc(C)nc3)cc12 [Compound 372, (1R,3S,5R)-2-(2-(3-Acetyl-5-(2-methylpyrimidin-5-yl)-1H-indazol-1-yl)acetyl)-N-(6-bromopyridin-2-yl)-5-methyl-2-azabicyclo[3.1.0]hexane-3-carboxamide] | < 1 µM |
| CC(=O)c1nn(CC(=O)N2C[C@H](F)C[C@H]2C(=O)Nc2ccn(-c3ccc(F)cn3)n2)c2ccc(-c3cnc(C)nc3)cc12 [Compound 479, (2S,4R)-1-(2-(3-acetyl-5-(2-Methylpyrimidin-5-yl)-1H-indazol-1-yl)acetyl)-4-fluoro-N-(1-(5-fluoropyridin-2-yl)-1H-pyrazol-3-yl)pyrrolidine-2-carboxamide] | < 1 µM |
| CC(=O)c1nn(CC(=O)N2C[C@H](F)C[C@H]2C(=O)Nc2cccc(Br)c2Cl)c2ccc(-c3cnc(C)nc3)cc12 [Compound 358, (2S,4R)-1-(2-(3-Acetyl-5-(2-methylpyrimidin-5-yl)-1H-indazol-1-yl)acetyl)-N-(3-bromo-2-chlorophenyl)-4-fluoropyrrolidine-2-carboxamide] | < 1 µM |
